From US20170197910A1, “SUBSTITUTED VINYL AND ALKYNYL CYANOCYCLOALKANOLS AND VINYL AND ALKYNYL CYANOHETEROCYCLOALKANOLS AS ACTIVE AGENTS AGAINST ABIOTIC PLANT STRESS” (BAYER CROPSCIENCE AKTIENGESELLSCHAFT, priority 2014, published 2017)

How the values were obtained:
[1] = biological target: T1, phosphatase ABI1 via the co-regulator RCAR11/PYR1 (Arabidopsis thaliana, UniProt O49686+P49597); experiment: In vitro inhibition of phosphatase ABI1 via co-regulator RCAR11/PYR1, MUP dephosphorylation fluorescence assay; format: biochemical; details: concentration of 5 mM of the substance in DMSO and water; MUP substrate, 35° C., 20 minutes
T1 sequence (O49686 1-191): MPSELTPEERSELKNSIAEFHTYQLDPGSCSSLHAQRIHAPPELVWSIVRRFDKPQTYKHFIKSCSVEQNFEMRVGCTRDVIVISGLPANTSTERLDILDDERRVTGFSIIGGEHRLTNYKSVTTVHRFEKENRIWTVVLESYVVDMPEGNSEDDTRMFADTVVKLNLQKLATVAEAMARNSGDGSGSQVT
T1 sequence (P49597 1-434): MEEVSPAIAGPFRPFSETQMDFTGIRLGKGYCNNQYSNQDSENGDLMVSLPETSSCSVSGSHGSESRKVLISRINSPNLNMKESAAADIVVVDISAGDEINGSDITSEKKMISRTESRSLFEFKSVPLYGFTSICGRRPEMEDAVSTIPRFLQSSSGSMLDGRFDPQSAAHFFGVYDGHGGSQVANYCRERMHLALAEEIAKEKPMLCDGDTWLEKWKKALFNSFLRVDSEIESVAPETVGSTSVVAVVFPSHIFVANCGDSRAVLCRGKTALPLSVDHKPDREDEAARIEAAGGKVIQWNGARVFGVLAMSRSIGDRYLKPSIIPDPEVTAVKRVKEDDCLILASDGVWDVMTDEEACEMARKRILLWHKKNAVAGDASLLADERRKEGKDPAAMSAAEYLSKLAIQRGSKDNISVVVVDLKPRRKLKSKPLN
Description: Effects of the phytohormone abscisic acid (ABA) on the behaviour of plants under abiotic stress and the mechanism of action of ABA are described in the literature (cf. Abrams et al., WO97/23441, Cutler, Park et al. Science, 2009, 324, 1068; Grill et al. Science, 2009, 324, 1064; Tanokura et al. Biophysics, 2011, 7, 123; Schroeder et al. Plant J. 2010, 61, 290). Therefore, it is possible with the aid of a suitable in vitro test system to derive a correlation between the action of ABA and the stress response of a plant under abiotic stress. In the event of water deficiency (drought stress), plants form the phytohormone abscisic acid (ABA). […]
The assay described hereinafter utilizes the inhibition of the phosphatase ABI1 via the co-regulator RCAR11/PYR1 aus Arabidopsis thaliana. For the determination of activity, the dephosphorylation of 4-methylumbelliferyl phosphate (MUP) was measured at 460 nm. […]
Enzyme buffer mix and substrate mix were made up 5 minutes prior to the addition and warmed to a temperature of 35° C. […] Finally, a relative fluorescence measurement was made at 35° C. with a BMG Labtech “POLARstar Optima” microplate reader using a 340/10 nm excitation filter and a 460 nm emission filter. […]

Triticum aestivum = experiment: In vivo drought stress test on crop plants, spray application, visual scoring vs stressed control (TRZAS); parameters: key: 0: no positive effect; 10: slight positive effect; 20: clear positive effect; 30: strong positive effect; details: dosage 250 g/ha, average score of 3 pots vs stressed control
Protocol: (§1) Seeds of monocotyledonous and dicotyledonous crop plants were sown in sandy loam in plastic pots, covered with soil or sand and cultivated in a greenhouse under good growth conditions. The trial plants were treated at the early leaf stage (BBCH10-BBCH13). To assure uniform water supply before commencement of stress, the potted plants were supplied with water by dam irrigation prior to substance application. The inventive compounds, formulated in the form of wettable powders (WP), were sprayed onto the green parts of the plants as an aqueous suspension at an equivalent water application rate of 600 I/ha with addition of 0.2% wetting agent (e.g. agrotin). Substance application was followed immediately by stress treatment of the plants. […] Once this juncture had been reached, the appearance of the plants treated with test substances was recorded in comparison to the stressed control plants by the following categories: • 0 no positive effect • 10 slight positive effect • 20 clear positive effect • 30 strong positive effect In order to rule out any influence on the effects observed by any fungicidal or insecticidal action of the test compounds, it was additionally ensured that the tests proceeded without fungal infection or insect infestation. In each test, for each crop and dosage, plants in 3 pots were treated and evaluated separately. […]

Zea mays = experiment: In vivo drought stress test on crop plants, spray application, visual scoring vs stressed control (ZEAMX); parameters: key: 0: no positive effect; 10: slight positive effect; 20: clear positive effect; 30: strong positive effect; details: dosage 250 g/ha, average score of 3 pots vs stressed control
Protocol: as §1

Question: With `CC(C)C(O)(C#Cc1ccccc1C(=O)O)C1(C#N)CC1` (stereo not shown) [I.1-127, 2-[3-(1-Cyanocyclopropyl)-3-hydroxy-4-methylpent-1-yn-1-yl]benzoic acid] as the compound, how does the ABI1 inhibition [1] read?
Answer: Its ABI1 inhibition is “+++ (90%>inhibition≧70%)”.

Question: With `COC(=O)c1ccccc1C#CC(O)(C(C)C)C1(C#N)CC1` (stereo not shown) [I.1-130, Methyl 2-[3-(1-cyanocyclopropyl)-3-hydroxy-4-methylpent-1-yn-1-yl]benzoate] as the compound, how does the “Effect (TRZAS)” value (Triticum aestivum) read?
Answer: The value was 20.

Question: And the “Effect (ZEAMX)” value (Zea mays)?
Answer: Its value is 20.

Question: How did the ABI1 inhibition [1] turn out when `CC1=CC(=O)CC(C)(C)[C@@]1(O)/C=C/C(C)=C\C(=O)O` [abscisic acid, reference compound] was run?
Answer: The ABI1 inhibition was “++++ (inhibition≧90%)”.
